One assay concerns Native BPL3. Put plainly: Inhibition of hemagglutination activity of Native BPL3 by sugars. The class given is cell-based, Bryopsis plumosa.
In the next assay the test system is rD2BPL3. The assay can be described thus: Inhibition of hemagglutination activity of rD2BPL3 (refolded rBPL3) by sugars. The assay is classed as cell-based, Bryopsis plumosa. The following applies: for Minimum inhibitory concentration: inhibition of hemagglutination activity of rD2BPL3; for Concentration at which hemagglutination activity of rBPL3 was inhibited: refolded rBPL3, FIG. 8, running text. On the procedure: FIG. 8 is a photograph showing that the activity of the refolded rBPL3 is inhibited by N-acetyl D-glucosamine and N-acetyl D-glactosamine. Referring to FIG. 8, experiments on inhibition of hemagglutination activity for 10 kinds of sugars including GlcNAc and GaINAc which inhibited hemagglutination activity of Native BPL3 were conducted.

The next assay has as its target Fetuin. Put plainly: cell-based or functional assay.
Assay [1] in a line: Glycan binding specificity, RayBio Glycan Array 100. On the procedure:
Affinity with glycans was measured using RayBio® Glycan Array 100. The rBPL3 and the Native BPL3 were conjugated with biotin and then dialyzed to remove unreacted biotin.
FIG. 9 is a graph for comparing glycan binding specificities of Native BPL3, rD1BPL3, and rD2BPL3.

Setting [2] is: biotin-conjugated lectin, FIG. 9.

In brackets after ≈: the same amount, converted by molar mass. Like-named read-outs stand apart in the source and are kept apart here. Marks after values point to notes of the source that are not given here.

The record followed here is patent US10577400B2, “Method of manufacturing recombinant lectin protein and recombinant lectin protein manufactured by using the same” (NATIONAL MARINE BIODIVERSITY INSTITUTE OF KOREA, priority 2017, dated 2020).

In the case of `C[C@@H]1OC(O)[C@@H](O)[C@H](O)[C@@H]1O` (stereo partly drawn) [1-Fucose], the Minimum inhibitory concentration result in the assay with Native BPL3 and in the assay with rD2BPL3 was “NI (the absence of inhibition at 500 mM)” in each case.
Take `CC(=O)N[C@H]1C(O)O[C@H](CO)[C@H](O)[C@@H]1O` (stereo partly drawn) [N-acetyl-d-galactosamine]: the Minimum inhibitory concentration with Native BPL3 is on record as 62.5 mM (≈ 13.8 mg/mL). In the assay with rD2BPL3, the Minimum inhibitory concentration is given as 31.25 mM (≈ 6.91 mg/mL) and the “Concentration at which hemagglutination activity of rBPL3 was inhibited” value turned out to be 62.5 mM.
As to `CC(=O)N[C@H]1C(O)O[C@H](CO)[C@@H](O)[C@@H]1O` (stereo partly drawn) [N-acetyl-d-glucosamine], the Minimum inhibitory concentration with Native BPL3 is listed as 125 mM (≈ 27.7 mg/mL); in the assay with rD2BPL3 it was 62.5 mM (≈ 13.8 mg/mL). Moreover, in the assay on rD2BPL3, the “Concentration at which hemagglutination activity of rBPL3 was inhibited” value came out at 125 mM.
Take `O=C(CO)[C@@H](O)[C@H](O)[C@H](O)CO` [d-Fructose]: the Minimum inhibitory concentration entry with Native BPL3 and in the assay with rD2BPL3 was “NI (the absence of inhibition at 500 mM)” in each case.
For the molecule `O=C[C@H](O)[C@@H](O)[C@@H](O)[C@H](O)CO` [d-Galactose], the Minimum inhibitory concentration entry in the assay on Native BPL3 and with rD2BPL3 was “NI (the absence of inhibition at 500 mM)” each time.
In the case of `O=C[C@H](O)[C@@H](O)[C@H](O)[C@H](O)CO` [d-Glucose], the Minimum inhibitory concentration result in the assay with Native BPL3 and with rD2BPL3 was “NI (the absence of inhibition at 500 mM)” in each case.
For the molecule `OC[C@H]1O[C@H](O[C@H]2[C@H](O)[C@@H](O)[C@H](O)O[C@@H]2CO)[C@H](O)[C@@H](O)[C@@H]1O` [d-Maltose], the Minimum inhibitory concentration entry in the assay on Native BPL3 and in the assay with rD2BPL3 was “NI (the absence of inhibition at 500 mM)” throughout.
On to `O=C[C@@H](O)[C@@H](O)[C@H](O)[C@H](O)CO` [d-Mannose], for which the Minimum inhibitory concentration entry in the assay on Native BPL3 is listed as “NI (the absence of inhibition at 500 mM)”; in the assay on Native BPL3 (listed as α-Man), “not inhibited”; in the assay on rD2BPL3 it was “NI (the absence of inhibition at 500 mM)”; in the assay with rD2BPL3 (listed as α-Man), “not inhibited”.
As to `OC[C@H]1O[C@@H](O[C@H]2[C@H](O)[C@@H](O)[C@H](O)O[C@@H]2CO)[C@H](O)[C@@H](O)[C@H]1O` [β-Lactose], the Minimum inhibitory concentration entry in the assay on Native BPL3 and in the assay on rD2BPL3 was “NI (the absence of inhibition at 500 mM)” in each case.
“Native BPL3 (Bryopsis plumosa lectin 3 derived from Bryopsis plumosa)” displayed a Minimum inhibitory concentration (inhibition of hemagglutination activity) in the assay with Fetuin of 19.5 µg/mL.

B1: rD2BPL3 (recombinant BPL3 lectin obtained by the gene having the repeating structure) (protein, part only; not given: spacer and vector tag, not shown: small tags and cut ends)
chain, part: TDVGSVQVRGLGDRSSCPVKPWTTAQTSAREKVVSVKFDIPYSSTPKVALSLSGMDMDTKYNTRINTSVENLTNEGFDLKVGVWCNTYAYMLDVTYVVVPAPYAAGTDVGSVQVRGLGDRSSCPVKPWTTAQTSAREKVVSVKFDIPYSSTPKVALSLSGMDMDTKYNTRINTSVENLTNEGFDLKVGVWCNTYAYMLDVTYVVVPAPYAAG
Molecule B1 displayed a Minimum inhibitory concentration (inhibition of hemagglutination activity) with Fetuin of 4.88 µg/mL.

B2: Fetuin (protein, UniProt P12763 19-359, looked up)
Alpha-2-HS-glycoprotein: IPLDPVAGYKEPACDDPDTEQAALAAVDYINKHLPRGYKHTLNQIDSVKVWPRRPTGEVYDIEIDTLETTCHVLDPTPLANCSVRQQTQHAVEGDCDIHVLKQDGQFSVLFTKCDSSPDSAEDVRKLCPDCPLLAPLNDSRVVHAVEVALATFNAESNGSYLQLVEISRAQFVPLPVSVSVEFAVAATDCIAKEVVDPTKCNLLAEKQYGFCKGSVIQKALGGEDVRVTCTLFQTQPVIPQPQPDGAEAEAPSAVPDAAGPTPSAAGPPVASVVVGPSVVAVPLPLHRAHYDLRHTFSGVASVESSSGEAFHVGKTPIVGQPSIPGGPVRLCPGRIRYFKI
As for B2, the Minimum inhibitory concentration with Native BPL3 (concentration in μg/mL) is 19.53^§ μg/mL; in the assay with rD2BPL3 (concentration in μg/mL) it was 4.88^§ μg/mL.

B3: Native BPL3: BPL3 (Bryopsis plumosa lectin) derived from bryopsis plumosa, comparative target (protein)
chain: TDVGSVQVRGLGDRSSCPVKPWTTAQTSAREKVVSVKFDIPYSSTPKVALSLSGMDMDTKYNTRINTSVENLTNEGFDLKVGVWCNTYAYMLDVTYVVVPAPYAAG
modifications: bryopsis plumose-derived BPL3 gene
notes: BPL3 (Bryopsis plumosa lectin) derived from bryopsis plumosa, comparative target
On to B3, for which, in assay [1] (setting [2]), the “Glycan giving a strong signal” value is recorded as “strong signal for a glycan of Gal-β-1,3-GaINAc-α-Sp” and the “Number of glycans reacted with, of 100 glycans” value was found to be 5. Further, in assay [1] (glycan array), the “Binding to α-Man-Sp” value is listed as “specifically bound” and the “Binding to β-GlcNAc-Sp” value is listed as “does not react”.
